In patent US6806267B1, “Apoptosis-inducing compounds” (priority 1998, dated 2004):

Assays:
K562 cells = experiment: Apoptosis in K562 cells, cytospin and staining; format: cell-based, human; conditions: for protection against PBOX-6 induced apoptosis / effect of tyrosine kinase inhibitor pretreatment on PBOX-6 induced apoptosis: K562; for protection against PBOX-6 induced apoptosis: Vitamin E 1 hour or N-acetylcysteine 24 hours, then PBOX-6 16 hours; for effect of pretreatment on PBOX-6 induced apoptosis: K562, 1 hour prior to PBOX-6 16 hours; for induction of apoptosis: K562 cells; for effect of tyrosine kinase inhibitor pretreatment on PBOX-6 induced apoptosis: genistein 100 μM, herbimycin A 5 μM, tyrophostin 200 μM
HL-60 cells = experiment: Apoptosis in HL-60 cells, cytospin and Rapi-Diff staining; conditions: for protection against PBOX-6 induced apoptosis: HL-60, N-acetylcysteine 5 mM or TEMPO 1 μM, 30 min prior to PBOX-6 8 hours; for cytotoxicity at 10 µM: Homo sapiens, HL-60, 16 h, read-out: % Apoptosis; for induction of apoptosis at 10 μM / induction of apoptosis at a higher concentration: HL 60 cells; for induction of apoptosis at a higher concentration: higher concentration printed as 10 μM
[1] = biological target: T1, peripheral-type benzodiazepine receptor (PBR) (Homo sapiens, UniProt P30536); experiment: Radioligand binding assay, inhibition of [^3H]PK 11195 binding to HL-60 homogenates; conditions: for Ki: HL-60 homogenates, 2 nM [^3H]PK 11195, mean±SEM, read-out: Inhibition of [^3H]PK 11195 binding to the PBR, Ki value
T1 construct: Cell homogenates (50 μg protein) were incubated with 0.5-50 nM [^3H]; PK 11195; endogenous in cells; host or cells: HL-60 cell homogenate
T1 sequence (P30536 whole entry): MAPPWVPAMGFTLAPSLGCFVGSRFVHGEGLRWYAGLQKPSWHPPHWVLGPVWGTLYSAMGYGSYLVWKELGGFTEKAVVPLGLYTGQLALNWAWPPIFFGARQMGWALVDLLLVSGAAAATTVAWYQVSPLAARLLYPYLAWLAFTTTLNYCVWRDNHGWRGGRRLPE
Experimental: HL-60 cells were harvested by centrifugation at 600 g for 5 min and washing in phosphate-buffered saline. The resulting cell pellet was homogenised in 50 mM Tris/HCl buffer, pH 7.4 (2 ml), using an Ultraturrax homogeniser (10 sec) and then passed 5 times through a 21 gauge needle. Cell homogenates (50 μg protein) were incubated with 0.5-50 nM [^3H] PK 11195 in 50 mM Tris/HCl buffer, pH 7.4 (incubation buffer), in a total volume of 0.5 ml on ice. Total and non-specific/non-saturable binding in each case was determined in the absence and presence of 10 μM unlabelled PK 11195 respectively. All samples were incubated in triplicate for 60 min. The incubation mixtures were then filtered and counted as previously described (O'Beirne, et al., 1988). When testing the potency of a compound to inhibit [^3H] PK 11195 binding, samples were incubated with 2 nM [3H] PK 11195 and various concentrations (0.1 nM to 1 μM) of compound and subsequently treated exactly as above. The resulting Ki values were then generated by the use of the computer programs EBDA and LIGAND.
The amount of radioactivity bound in the presence of the displacer was expressed as a percentage of control bonding and the values represent the mean±SEM of triplicate determinations from one representative experiment performed at least twice. The Ki values were obtained as described in Methods section.

rat C6 glioma = conditions: dose-dependent; cited from earlier work
[2] = test system: human 132 l N1 astrocytoma; conditions: dose-dependent; cited from earlier work
[3] = test system: CML cell lines K562, KYO.1 and Lama 84; experiment: Apoptosis in CML cell lines, cytospin and staining; format: cell-based, human; conditions: for induction of apoptosis at 10 μM / induction of apoptosis at 100 μM: CML cells
JNK1 and JNK2 = format: cell-based, human; conditions: K562
[4] = test system: tyrosine phosphorylated proteins; experiment: Protein tyrosine phosphorylation Western blot, K562 cells; format: cell-based, human; conditions: K562, 100 μM in DMSO, 1 hr prior to PBOX-6
Experimental: Jurkat and CML cells (5×10^6) were harvested by centrifuigation at 1800 g for 10 min at 4° C. After being washed once with ice-cold phosphate-buffered saline, the cell pellet was suspended in 100 μl of ice-cold lysis buffer (50 mM Tris-HCl, pH 8.0, 150 mM NaCl, 0.1%.SDS, 1% Triton X-100, 1 mM sodium 1 mM phenylmethylsulfonyl, 10 ng/ml leupeptin and 10 ng/ml of aprotinin). The cells were left to sit on ice for 10 min and then centrifuged at 20,000 g for 20 min. The resulting supernatant was stored at −70° C. until measurement of tyrosine phosphorylation. Protein determination was measured by using the Bradford assay. Equal amounts of protein were resolved by SDS-polyacrylamide gel electrophoresis in 15% gels and transferred onto polyvinylidene difluoride (PVDF) membranes. Membranes were blocked with Tris-buffered saline with Tween 20 (10 mM Tris-HCl, pH 8.0, 150 mM NaCl, 0.05% Tween 20) containing 1% w/v BSA and probed with anti-phosphotyrosine antibody. Blots were washed, incubated with goat anti-mouse IgG peroxidase conjugate and developed by ECL according to the manufacturer's recommendations.

CC(=O)N[C@@H](CS)C(=O)O [N-acetylcysteine, reference compound]
protection against PBOX-6 induced apoptosis (K562 cells): failed to protect | protection against PBOX-6 induced apoptosis (HL-60 cells): Neither of these compounds were found to protect

CC(=O)OC1=C(c2cccc3ccccc23)Oc2ccccc2-n2cccc21 [PBOX-4, 7-Acetoxy-6-(1-naphthyl)pyrrolo[2,1-d][1,5]benzoxazepine]
cytotoxicity at 10 µM (HL-60 cells): 42.1 ± 0.6% | Ki [1]: 1.9 ± 2.3 nM

CNC(=O)OC1=C(c2cccc3ccccc23)Oc2ccccc2-n2cccc21 [PBOX-7, 7-[(Methylcarbamoyl)oxy]-6-(1-naphthyl)pyrrolo[2,1-d][1,5]-benzoxazepine]
degree of necrosis (HL-60 cells; HL-60 cells, 10 μM, 16 hours): negligible | cytotoxicity at 10 µM (HL-60 cells): 40.7 ± 2.5% | Ki [1]: 1.7 ± 0.7 nM

CN(C)C(=O)OC1=C(c2cccc3ccccc23)Sc2ccccc2-n2cccc21 [PBOX-8, 7-((Dimethylcarbamoyl)oxy)-6-(1-naphthyl)pyrrolo[2,1-d][1,5]benzothiazepine]
cytotoxicity at 10 µM (HL-60 cells): 38.6 ± 3.1%

CC(=O)OC1=C(c2cccc3ccccc23)Sc2ccccc2-n2cccc21 [PBOX-9, 7-Acetoxy-6-(1-naphthyl)pyrrolo[2,1-d][1,5]benzothiazepine]
cytotoxicity at 10 µM (HL-60 cells): 40.4 ± 3%

CC(=O)OC1=C(c2cccc3ccccc23)Oc2cccnc2-n2cccc21 [PBOX-12, 7-Acetoxy-6-(1-naphthyl)pyrrolo[1,2-d]pyrido[3,2-b][1,4]oiazepine]
cytotoxicity at 10 µM (HL-60 cells): 27.1 ± 2.7%

CCN(CC)C(=O)OC1=C(c2ccc(C)cc2)Oc2ccccc2-n2cccc21 [PBOX-21]
inhibition of proliferation, without being cytotoxic (rat C6 glioma): inhibit at micromolar concentrations | inhibition of proliferation, without being cytotoxic [2]: inhibit at micromolar concentrations

CC(=O)OC1=C(c2ccc(C)cc2)Oc2ccccc2-n2cccc21 [PBOX-24, 7-Acetoxy-6p-tolylpyrrolo[2,1-d][1,5]benzoxazepine]
cytotoxicity at 10 µM (HL-60 cells): 7 ± 1.2%

CCNC(=O)OC1=C(c2ccccc2)Oc2ccccc2-n2cccc21 [PBOX-25, 7-[(Ethylcarbamoyl)oxy]-6-phenylpyrrolo[2,1-d][1,5]benzoxazepine]
cytotoxicity at 10 µM (HL-60 cells): 19.2 ± 3%

CCN(CC)C(=O)OC1=C(c2ccccc2)Oc2cccnc2-n2cccc21 [PBOX-26, 7-((Diethylcarbamoyl)oxy)-6-phenylpyrrolo[1,2-d]pyrido[3,2-b][1,4]oxazepine]
cytotoxicity at 10 µM (HL-60 cells): 7.8 ± 2.3%

COc1ccc(C2=C(OC(=O)c3ccncc3)c3cccn3-c3ccccc3S2)cc1 [PBOX-28, 7-Isonicotinoyloxy-6-p-methoxyphenylpyrrolo[2,1-d][1,5]-benothiazepine]
cytotoxicity at 10 µM (HL-60 cells): 31.1 ± 1.7%

CCCC(=O)OC1=C(c2ccc(OC)cc2)[S+]([O-])c2ccccc2-n2cccc21 (stereo not shown) [PBOX-30, 7-(Butyryloxy)-6-(p-methoxyphenyl)pyrrolo[2,1-d][1,5]-benzothiazepine 5-Oxide]
cytotoxicity at 10 µM (HL-60 cells): 33.1 ± 1.6%

CCC(C)N(C)C(=O)c1cc2ccccc2c(-c2ccccc2Cl)n1 (stereo not shown) [PK 11195, 1-(2-chlorophenyl)-N-methyl-N-(1-methylpropyl)-3-isoquinolinecarboxamide]
inhibition of proliferation, without being cytotoxic (rat C6 glioma): inhibit at micromolar concentrations | induction of apoptosis at 10 μM [3]: failed to induce apoptosis | induction of apoptosis at 100 μM [3]: apoptosis was induced, although not to the same extent | induction of apoptosis at 10 μM (HL-60 cells; 10 μM): did not induce apoptosis | induction of apoptosis at a higher concentration (HL-60 cells): induced apoptosis | inhibition of proliferation, without being cytotoxic [2]: inhibit at micromolar concentrations

CN1C(=O)CN=C(c2ccc(Cl)cc2)c2cc(Cl)ccc21 [Ro5-4864, 7-chloro-5-(4-chlorophenyl)-1,3-dihydro-1-methyl-2-H-1,4-benzodiazepin-2-one]
inhibition of proliferation, without being cytotoxic (rat C6 glioma): inhibit at micromolar concentrations | induction of apoptosis at 10 μM [3]: failed to induce apoptosis | induction of apoptosis at 100 μM [3]: apoptosis was induced, although not to the same extent | induction of apoptosis at 10 μM (HL-60 cells; 10 μM): did not induce apoptosis | induction of apoptosis at a higher concentration (HL-60 cells): induced apoptosis | inhibition of proliferation, without being cytotoxic [2]: inhibit at micromolar concentrations

CC1(C)CCCC(C)(C)N1[O] [TEMPO, reference compound]
protection against PBOX-6 induced apoptosis (HL-60 cells): Neither of these compounds were found to protect

CCC(C)N(C)C(=O)c1cc2ccccc2c(-c2ccccc2Cl)n1 (stereo not shown) [[^3H] PK 11195, reference compound]
Bmax of [^3H] PK 11195 binding ([1]; HL-60 cell homogenates): 9.5±1.5 pmol/mg of protein

COc1cc([C@@H]2c3cc4c(cc3[C@@H](O[C@@H]3O[C@@H]5CO[C@@H](C)O[C@H]5[C@H](O)[C@H]3O)[C@H]3COC(=O)[C@H]23)OCO4)cc(OC)c1O [etoposide]
effect of pretreatment on PBOX-6 induced apoptosis (K562 cells): protects against apoptosis | apoptosis (K562 cells; K562, up to 24 hours): failed to undergo apoptosis | induction of apoptosis (K562 cells): does not induce apoptosis | effect of Topo II inhibitor pretreatment on PBOX-6 induced JNK activation (JNK1 and JNK2): failed to prevent against PBOX-6 induced activation of JNK

O=c1c(-c2ccc(O)cc2)coc2cc(O)cc(O)c12 [genistein, reference compound]
effect of pretreatment on PBOX-6 induced protein phosphorylation [4]: prevented the phosphorylation of these two proteins | effect of tyrosine kinase inhibitor pretreatment on PBOX-6 induced apoptosis (K562 cells): completely inhibited the induction of apoptosis

CO[C@H]1[C@@H](OC)C[C@H](C)[C@@H](OC)C2=CC(=O)C=C(NC(=O)/C(C)=C/C=C\[C@H](OC)[C@@H](OC(N)=O)/C(C)=C/[C@@H]1C)C2=O [herbimycin A]
effect of tyrosine kinase inhibitor pretreatment on PBOX-6 induced apoptosis (K562 cells): reduced levels of apoptosis

O=C1c2c(O)ccc(O)c2C(=O)c2c(NCCNCCO)ccc(NCCNCCO)c21 [mitoxanthrone]
effect of pretreatment on PBOX-6 induced apoptosis (K562 cells): protects against apoptosis | induction of apoptosis (K562 cells): does not induce apoptosis

Vitamin E
protection against PBOX-6 induced apoptosis (K562 cells): failed to protect

z-DEVD-fmk [reference compound]
effect of pretreatment on PBOX-6 induced apoptosis [3]: failed to prevent the induction of apoptosis | effect of pre-treatment on morphological signs of apoptosis induced by PBOX-6 (HL-60 cells): inhibited
